Reference: paper PMC5457276, “Influence of Amphibian Antimicrobial Peptides and Short Lipopeptides on Bacterial Biofilms Formed on Contact Lenses” (Materials, 2016)
Like-named read-outs stand apart in the source and are kept apart here.

Legend:
[1] = tested on: biofilms formed by Gram-positive bacteria on contact lenses; test: Biofilm assay on contact lenses (MBEC), summary over Gram-positive strains; assay type: cell-based
Procedure: (§1) All selected strains were obtained from the Polish Collection of Microorganisms (Polish Academy of Science, Wroclaw, Poland). Four Gram-positive and three Gram-negative strains linked with CL-related infections lenses were tested (Table 5). The microorganisms were cultured in a Mueller Hinton Broth II (MHB, Biocorp, Warsaw, Poland) overnight, at 37 °C.
(§2) The CL and CL solutions used are commercially available. One-day CL (1-Day Acuvue Moist) containing Etafilcon A were obtained from Johnson and Johnson Vision Care (Jacksonsville, FL, USA). Four popular CL solutions were also tested (Table 6).
(§3) Biofilms of strains related with ocular infections were cultured on CL placed in polystyrene 24-well plates (Orange Scientific, Braine-l’Alleud, Belgium). Biomaterials were incubated at 37 °C in bacterial suspension in the Mueller Hinton Broth II (Biocorp, Warsaw, Poland) at initial inoculums of ca. 5 × 10^5 CFU/mL. After 24 h of incubation all of the CL were rinsed three times with a sterile phosphate buffer (AppliChem, Darmstadt, Germany). The lenses were then transferred into new wells with fresh MHB II. One-day biofilms were exposed to a pre-determined range of peptides concentration. […] Anti-biofilm activity of selected peptides was visualized using a cell-viability reagent, Resazurin (Sigma Aldrich, St. Louis, MO, USA). Upon contact with living cells the dye is metabolized by bacterial dehydrogenases resulting in the reduction of the blue resazurin to a pink resorufin. Positive controls contained CL immersed in bacterial suspensions without antimicrobials, while CL in a sterile culture medium served as negative controls. The minimum biofilm eradication concentration (MBEC) was read after a one-hour incubation with Resazurin (final concentration per sample = 0.005%) MBEC was determined as the lowest concentration at which the reduction of resazurin was lower or equal (10% ± 0.5%) as compared to positive (100%) and negative (0%) controls. All experiments were performed in triplicate.

[2] = tested on: Streptococcus pneumoniae ATCC 49619 biofilm on contact lenses; test: Biofilm assay on contact lenses (MBEC, resazurin); assay type: cell-based; settings: S. pneumoniae, triplicate
Procedure: as §1, §2, §3

[3] = tested on: Staphylococcus aureus ATCC 25923 biofilm on contact lenses; test: Biofilm assay on contact lenses (MBEC, resazurin); assay type: cell-based; settings: S. aureus, triplicate
Procedure: as §1, §2, §3

[4] = tested on: Staphylococcus epidermidis ATCC 14990 biofilm on contact lenses; test: Biofilm assay on contact lenses (MBEC, resazurin); assay type: cell-based; settings: S. epidermidis, triplicate
Procedure: as §1, §2, §3

[5] = tested on: Streptococcus pyogenes PCM 465 biofilm on contact lenses; test: Biofilm assay on contact lenses (MBEC, resazurin); assay type: cell-based; settings: S. pyogenes, triplicate
Procedure: as §1, §2, §3

[6] = tested on: Streptococcus pyogenes PCM 465; assay type: cell-based; settings: S. pyogenes; same MIC in μM (in brackets); broth microdilution, MHB II, overnight at 37 °C, triplicate
Procedure: as §1
(§4) Peptide susceptibility tests on the reference bacterial strains were performed with the following procedures recommended by the Clinical and Laboratory Standard Institute (CLSI). The activity of five peptides was tested on the Mueller Hinton Broth II (Biocorp, Warsaw, Poland) using broth microdilution method on polystyrene 96-well plates (Kartell, Noviglio, Italy). […] The plates were incubated overnight at 37 °C. MIC was assumed as the lowest concentration at which bacterial growth was no longer visible. All experiments were performed in triplicate.

[7] = tested on: Staphylococcus epidermidis ATCC 14990; assay type: cell-based; settings: S. epidermidis; same MIC in μM (in brackets); broth microdilution, MHB II, overnight at 37 °C, triplicate
Procedure: as §1, §4

[8] = tested on: Escherichia coli ATCC 25922; assay type: cell-based; settings: E. coli; same MIC in μM (in brackets); broth microdilution, MHB II, overnight at 37 °C, triplicate
Procedure: as §1, §4

[9] = tested on: Streptococcus pneumoniae ATCC 49619; assay type: cell-based; settings: S. pneumoniae; same MIC in μM (in brackets); broth microdilution, MHB II, overnight at 37 °C, triplicate
Procedure: as §1, §4

[10] = tested on: Staphylococcus aureus ATCC 25923; assay type: cell-based; settings: S. aureus; same MIC in μM (in brackets); broth microdilution, MHB II, overnight at 37 °C, triplicate
Procedure: as §1, §4

[11] = tested on: Pseudomonas aeruginosa ATCC 9027; assay type: cell-based; settings: P. aeruginosa; same MIC in μM (in brackets); broth microdilution, MHB II, overnight at 37 °C, triplicate
Procedure: as §1, §4

[12] = tested on: Escherichia coli ATCC 25922 biofilm on contact lenses; assay type: cell-based; settings: for Minimum biofilm eradication concentration (reduction of resazurin ≤10% ± 0.5%): E. coli, triplicate
Procedure: as §1, §2, §3

[13] = tested on: Pseudomonas aeruginosa ATCC 9027 biofilm on contact lenses; assay type: cell-based; settings: P. aeruginosa, triplicate
Procedure: as §1, §2, §3

HaCaT cells = settings: cited from earlier work
Text: Our data reveal that AMPs might be promising antibacterial additives to CL solutions. However there are certain limitations and issues which need to be considered. The long-time stability of compounds in a water solution needs to be examined, but first of all the evaluation of toxicity towards human eye cells needs to be carried out. In the previous study tested amphibian peptides turned out to be safe towards HaCaT cells at their microbiologically-active concentrations. […] Considering the potenti ...

[14] = 25 °C, one-day biofilm on contact lens (Etafilcon A), 24 h exposure in MHB II, resazurin read-out
[15] = 25 °C, same MBEC in μM (in brackets), biofilm on contact lens, 24 h exposure
[16] = 37 °C, one-day biofilm on contact lens (Etafilcon A), 24 h exposure in MHB II, resazurin read-out
[17] = 37 °C, same MBEC in μM (in brackets), biofilm on contact lens, 24 h exposure

Compound: CCCCCCCCCCCCCCCC(=O)N[C@@H](CCCCN)C(=O)N[C@@H](CCCCN)C(N)=O [Palm-KK-NH2]
- Concentrations eradicating biofilms formed by Gram-positive bacteria (MBEC) ([1]; at 37 °C): 32 to 512 µg/mL
- Concentrations eradicating biofilms formed by Gram-positive bacteria (MBEC) ([1]; printed "below 25 °C"): 32 to 64 µg/mL
- Minimum biofilm eradication concentration (reduction of resazurin ≤10% ± 0.5%) [2, 14]: 64 µg/mL
- Minimum biofilm eradication concentration (reduction of resazurin ≤10% ± 0.5%) [2, 15]: (86.6) μM
- Minimum biofilm eradication concentration (reduction of resazurin ≤10% ± 0.5%) [2, 16]: 64 µg/mL
- Minimum biofilm eradication concentration (reduction of resazurin ≤10% ± 0.5%) [2, 17]: (86.6) μM
- Minimum biofilm eradication concentration (reduction of resazurin ≤10% ± 0.5%) [3, 14]: 32 µg/mL
- Minimum biofilm eradication concentration (reduction of resazurin ≤10% ± 0.5%) [3, 15]: (43.3) μM
- Minimum biofilm eradication concentration (reduction of resazurin ≤10% ± 0.5%) [3, 16]: 64 µg/mL
- Minimum biofilm eradication concentration (reduction of resazurin ≤10% ± 0.5%) [3, 17]: (86.6) μM
- Minimum biofilm eradication concentration (reduction of resazurin ≤10% ± 0.5%) [4, 14]: 32 µg/mL
- Minimum biofilm eradication concentration (reduction of resazurin ≤10% ± 0.5%) [4, 15]: (43.3) μM
- Minimum biofilm eradication concentration (reduction of resazurin ≤10% ± 0.5%) [4, 16]: 32 µg/mL
- Minimum biofilm eradication concentration (reduction of resazurin ≤10% ± 0.5%) [4, 17]: (43.3) μM
- Minimum biofilm eradication concentration (reduction of resazurin ≤10% ± 0.5%) [5, 14]: 32 µg/mL
- Minimum biofilm eradication concentration (reduction of resazurin ≤10% ± 0.5%) [5, 15]: (43.3) μM
- Minimum biofilm eradication concentration (reduction of resazurin ≤10% ± 0.5%) [5, 16]: 512 µg/mL
- Minimum biofilm eradication concentration (reduction of resazurin ≤10% ± 0.5%) [5, 17]: (693.0) μM
- Minimum inhibitory concentration [6]: (21.7) μM
- Minimum inhibitory concentration [7]: (5.4) μM
- Minimum inhibitory concentration [8]: (10.8) μM
- Minimum inhibitory concentration [9]: (10.8) μM
- Minimum inhibitory concentration [10]: (10.8) μM
- Minimum inhibitory concentration [11]: (21.7) μM
- Concentration eradicating E. coli biofilms (MBEC) ([12]; ATCC 25922, 24 h): 256 µg/mL
- Minimum biofilm eradication concentration (reduction of resazurin ≤10% ± 0.5%) [12, 14]: 256 µg/mL
- Minimum biofilm eradication concentration (reduction of resazurin ≤10% ± 0.5%) [12, 15]: (346.5) μM
- Minimum biofilm eradication concentration (reduction of resazurin ≤10% ± 0.5%) [12, 16]: 256 µg/mL
- Minimum biofilm eradication concentration (reduction of resazurin ≤10% ± 0.5%) [12, 17]: (346.5) μM
- Minimum biofilm eradication concentration (reduction of resazurin ≤10% ± 0.5%) [13, 14]: >512 µg/mL
- Minimum biofilm eradication concentration (reduction of resazurin ≤10% ± 0.5%) [13, 15]: (>693.0) μM
- Minimum biofilm eradication concentration (reduction of resazurin ≤10% ± 0.5%) [13, 16]: >512 µg/mL
- Minimum biofilm eradication concentration (reduction of resazurin ≤10% ± 0.5%) [13, 17]: (>693.0) μM
- Toxicity towards HaCaT cells / human keratinocytes (in words) (HaCaT cells): high toxicity
